Results as given in patent publication US11572590B2, “Methods for evaluating tumor cell spheroids using 3D microfluidic cell culture device” (Dana-Farber Cancer Institute, Inc., priority 2017, dated 2023).
Where two headings read alike, the source gives them in different places.

Tests used:
Test in all cases: SelectScreen Kinase Profiling, single point inhibition and IC50 for off-target kinases
Assay type in all cases: biochemical
off-target kinases [1] = target: T1, off-target kinases (Homo sapiens, UniProt O15111); settings: CHUK (IKK alpha), ATP Km app, Adapta
T1 sequence (O15111 1-745): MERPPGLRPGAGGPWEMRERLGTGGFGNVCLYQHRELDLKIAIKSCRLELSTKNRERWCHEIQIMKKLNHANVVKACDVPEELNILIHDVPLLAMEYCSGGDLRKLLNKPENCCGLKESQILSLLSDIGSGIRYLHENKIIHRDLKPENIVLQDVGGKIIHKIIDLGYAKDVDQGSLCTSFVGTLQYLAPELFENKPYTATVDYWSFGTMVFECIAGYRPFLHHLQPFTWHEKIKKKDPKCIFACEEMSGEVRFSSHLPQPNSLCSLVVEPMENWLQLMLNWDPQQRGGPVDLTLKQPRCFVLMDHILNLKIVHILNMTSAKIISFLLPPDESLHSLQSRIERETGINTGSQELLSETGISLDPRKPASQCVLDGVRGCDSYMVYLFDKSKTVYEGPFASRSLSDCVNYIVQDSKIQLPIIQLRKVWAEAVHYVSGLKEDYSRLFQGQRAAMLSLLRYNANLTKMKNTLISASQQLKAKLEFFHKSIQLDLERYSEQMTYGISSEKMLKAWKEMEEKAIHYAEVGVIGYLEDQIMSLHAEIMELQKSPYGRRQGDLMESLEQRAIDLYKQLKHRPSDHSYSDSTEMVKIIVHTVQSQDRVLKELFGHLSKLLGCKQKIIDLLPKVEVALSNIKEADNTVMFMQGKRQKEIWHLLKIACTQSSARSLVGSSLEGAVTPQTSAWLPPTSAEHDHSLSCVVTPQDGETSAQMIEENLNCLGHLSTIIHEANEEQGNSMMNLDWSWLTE

off-target kinases [2] = target: off-target kinases (Homo sapiens, UniProt O94921); settings: CDK14 (PFTK1)/cyclin Y, LanthaScreen Binding
off-target kinases [3] = target: off-target kinases (Homo sapiens, UniProt P00519, H396P); settings: ABL1 H396P, LanthaScreen Binding
off-target kinases [4] = target: off-target kinases (Homo sapiens, UniProt P17612); settings: PRKACA (PKA), ZLYTE, ATP Km app
off-target kinases [5] = target: off-target kinases (Homo sapiens, UniProt P30530, R499C); settings: AXL R499C, mutant y, LanthaScreen Binding
off-target kinases [6] = target: off-target kinases (Homo sapiens, UniProt P36894); settings: BMPR1A (ALK3), LanthaScreen Binding
off-target kinases [7] = target: off-target kinases (Homo sapiens, UniProt P41240); settings: CSK, ZLYTE, ATP Km app
off-target kinases [8] = target: off-target kinases (Homo sapiens, UniProt P78368); settings: CSNK1G2 (CK1 gamma 2); Cmpd1 1000 μM; ATP Km app; ZLYTE
off-target kinases [9] = target: off-target kinases (Homo sapiens, UniProt Q15349); settings: RPS6KA2 (RSK3), ZLYTE, ATP Km app
off-target kinases [10] = target: off-target kinases (Homo sapiens, UniProt Q8N568); settings: DCAMKL2 (DCK2), ZLYTE, ATP Km app
Chain of off-target kinases (Homo sapiens, UniProt Q8N568) (Q8N568 whole entry): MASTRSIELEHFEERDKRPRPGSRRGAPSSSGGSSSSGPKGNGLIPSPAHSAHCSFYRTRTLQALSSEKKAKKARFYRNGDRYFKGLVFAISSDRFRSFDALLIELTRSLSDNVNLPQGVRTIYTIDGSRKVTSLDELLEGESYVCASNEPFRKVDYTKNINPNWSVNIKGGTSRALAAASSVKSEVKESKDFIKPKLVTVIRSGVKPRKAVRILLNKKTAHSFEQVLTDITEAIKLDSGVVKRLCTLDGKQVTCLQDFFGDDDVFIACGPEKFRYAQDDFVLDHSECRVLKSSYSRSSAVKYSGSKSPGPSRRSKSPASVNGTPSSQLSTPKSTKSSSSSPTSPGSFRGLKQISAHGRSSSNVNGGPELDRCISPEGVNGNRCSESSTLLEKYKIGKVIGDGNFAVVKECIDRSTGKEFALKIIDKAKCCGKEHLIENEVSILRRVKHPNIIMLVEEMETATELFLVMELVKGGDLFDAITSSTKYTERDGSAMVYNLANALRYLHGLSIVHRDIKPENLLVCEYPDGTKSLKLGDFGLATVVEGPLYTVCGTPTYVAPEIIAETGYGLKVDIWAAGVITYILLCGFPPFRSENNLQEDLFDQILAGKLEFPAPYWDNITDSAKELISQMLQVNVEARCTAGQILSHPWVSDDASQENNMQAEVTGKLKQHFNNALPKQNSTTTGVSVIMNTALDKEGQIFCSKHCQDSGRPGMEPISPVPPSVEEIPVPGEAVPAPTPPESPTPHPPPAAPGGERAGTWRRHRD

Chain of off-target kinases (Homo sapiens, UniProt O94921) (O94921 whole entry): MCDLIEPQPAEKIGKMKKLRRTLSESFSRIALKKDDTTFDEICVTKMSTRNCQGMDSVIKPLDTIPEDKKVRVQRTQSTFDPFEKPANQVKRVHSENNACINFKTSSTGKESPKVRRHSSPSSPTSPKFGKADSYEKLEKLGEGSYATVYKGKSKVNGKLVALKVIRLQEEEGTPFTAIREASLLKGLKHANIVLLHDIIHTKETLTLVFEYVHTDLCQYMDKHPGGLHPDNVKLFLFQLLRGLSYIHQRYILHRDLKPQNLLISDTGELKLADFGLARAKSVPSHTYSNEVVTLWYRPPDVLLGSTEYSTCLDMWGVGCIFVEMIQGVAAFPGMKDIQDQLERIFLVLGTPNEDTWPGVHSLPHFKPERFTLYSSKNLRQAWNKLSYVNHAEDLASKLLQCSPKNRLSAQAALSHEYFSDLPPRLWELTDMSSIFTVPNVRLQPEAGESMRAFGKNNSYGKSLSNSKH
Chain of off-target kinases (Homo sapiens, UniProt Q15349) (Q15349 whole entry): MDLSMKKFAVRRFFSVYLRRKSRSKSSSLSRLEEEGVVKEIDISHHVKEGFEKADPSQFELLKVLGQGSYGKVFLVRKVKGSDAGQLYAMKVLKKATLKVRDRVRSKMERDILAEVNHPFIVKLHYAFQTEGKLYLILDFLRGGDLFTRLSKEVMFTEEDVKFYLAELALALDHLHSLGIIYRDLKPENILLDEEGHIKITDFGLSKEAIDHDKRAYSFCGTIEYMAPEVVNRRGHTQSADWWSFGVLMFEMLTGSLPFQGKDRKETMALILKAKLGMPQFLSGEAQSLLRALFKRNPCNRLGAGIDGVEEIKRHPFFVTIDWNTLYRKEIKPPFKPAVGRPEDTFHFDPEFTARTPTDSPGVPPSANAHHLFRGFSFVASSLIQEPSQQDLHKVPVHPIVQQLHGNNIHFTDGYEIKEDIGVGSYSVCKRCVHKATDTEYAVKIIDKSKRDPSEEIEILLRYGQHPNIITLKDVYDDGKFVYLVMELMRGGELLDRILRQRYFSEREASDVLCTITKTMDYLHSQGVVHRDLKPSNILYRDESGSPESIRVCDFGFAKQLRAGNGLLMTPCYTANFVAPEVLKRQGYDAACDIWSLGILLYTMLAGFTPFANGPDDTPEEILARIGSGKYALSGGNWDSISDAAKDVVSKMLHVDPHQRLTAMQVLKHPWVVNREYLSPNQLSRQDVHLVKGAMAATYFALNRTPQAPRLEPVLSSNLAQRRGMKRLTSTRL
Chain of off-target kinases (Homo sapiens, UniProt P78368) (P78368 whole entry): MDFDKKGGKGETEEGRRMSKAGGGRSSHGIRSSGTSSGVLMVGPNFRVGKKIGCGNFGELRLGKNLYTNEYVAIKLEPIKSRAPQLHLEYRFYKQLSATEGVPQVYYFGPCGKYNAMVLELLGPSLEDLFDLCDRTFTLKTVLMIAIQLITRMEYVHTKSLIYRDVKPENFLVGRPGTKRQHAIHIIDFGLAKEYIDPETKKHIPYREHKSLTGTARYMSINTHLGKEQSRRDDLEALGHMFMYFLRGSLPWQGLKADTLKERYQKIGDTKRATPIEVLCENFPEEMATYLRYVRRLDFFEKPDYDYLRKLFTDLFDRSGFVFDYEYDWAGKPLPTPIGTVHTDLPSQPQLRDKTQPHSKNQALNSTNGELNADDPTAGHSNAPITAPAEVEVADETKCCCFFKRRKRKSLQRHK
Chain of off-target kinases (Homo sapiens, UniProt P41240) (P41240 whole entry): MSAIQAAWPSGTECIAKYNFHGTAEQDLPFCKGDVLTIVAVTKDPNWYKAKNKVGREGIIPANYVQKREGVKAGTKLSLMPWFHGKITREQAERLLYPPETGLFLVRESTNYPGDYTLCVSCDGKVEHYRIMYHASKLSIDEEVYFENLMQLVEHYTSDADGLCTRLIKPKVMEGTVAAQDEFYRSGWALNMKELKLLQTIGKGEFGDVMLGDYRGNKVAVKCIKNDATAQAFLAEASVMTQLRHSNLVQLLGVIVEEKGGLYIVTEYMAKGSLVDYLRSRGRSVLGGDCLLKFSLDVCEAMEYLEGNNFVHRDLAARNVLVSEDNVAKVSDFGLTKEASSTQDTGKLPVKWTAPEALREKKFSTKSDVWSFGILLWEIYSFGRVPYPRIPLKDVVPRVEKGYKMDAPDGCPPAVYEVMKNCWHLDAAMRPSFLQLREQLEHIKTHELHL
Chain of off-target kinases (Homo sapiens, UniProt P30530, R499C) (P30530 26-894 R499C): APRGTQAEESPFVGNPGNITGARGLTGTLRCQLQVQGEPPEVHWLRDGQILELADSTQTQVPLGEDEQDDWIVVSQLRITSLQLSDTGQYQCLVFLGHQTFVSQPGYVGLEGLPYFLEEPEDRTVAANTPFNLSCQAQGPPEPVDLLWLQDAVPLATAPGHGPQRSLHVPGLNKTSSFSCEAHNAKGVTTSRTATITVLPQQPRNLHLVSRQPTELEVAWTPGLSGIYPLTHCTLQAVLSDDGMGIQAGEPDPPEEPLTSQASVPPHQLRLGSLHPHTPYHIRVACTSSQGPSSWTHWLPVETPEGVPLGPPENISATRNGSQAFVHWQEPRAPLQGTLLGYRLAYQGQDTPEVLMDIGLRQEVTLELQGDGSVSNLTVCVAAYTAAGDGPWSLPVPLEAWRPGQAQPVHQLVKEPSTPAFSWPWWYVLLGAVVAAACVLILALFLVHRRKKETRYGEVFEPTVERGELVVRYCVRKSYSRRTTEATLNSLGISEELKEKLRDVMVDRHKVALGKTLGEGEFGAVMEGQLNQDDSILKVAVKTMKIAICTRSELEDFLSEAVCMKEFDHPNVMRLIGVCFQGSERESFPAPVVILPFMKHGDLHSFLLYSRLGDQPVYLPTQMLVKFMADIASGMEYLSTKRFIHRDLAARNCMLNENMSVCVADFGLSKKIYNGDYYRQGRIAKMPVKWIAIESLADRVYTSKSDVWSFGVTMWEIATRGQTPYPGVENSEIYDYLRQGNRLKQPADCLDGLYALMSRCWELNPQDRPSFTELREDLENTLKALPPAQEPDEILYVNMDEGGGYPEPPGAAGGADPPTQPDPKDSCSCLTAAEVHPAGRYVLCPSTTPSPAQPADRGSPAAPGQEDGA
Chain of off-target kinases (Homo sapiens, UniProt P36894) (P36894 24-532): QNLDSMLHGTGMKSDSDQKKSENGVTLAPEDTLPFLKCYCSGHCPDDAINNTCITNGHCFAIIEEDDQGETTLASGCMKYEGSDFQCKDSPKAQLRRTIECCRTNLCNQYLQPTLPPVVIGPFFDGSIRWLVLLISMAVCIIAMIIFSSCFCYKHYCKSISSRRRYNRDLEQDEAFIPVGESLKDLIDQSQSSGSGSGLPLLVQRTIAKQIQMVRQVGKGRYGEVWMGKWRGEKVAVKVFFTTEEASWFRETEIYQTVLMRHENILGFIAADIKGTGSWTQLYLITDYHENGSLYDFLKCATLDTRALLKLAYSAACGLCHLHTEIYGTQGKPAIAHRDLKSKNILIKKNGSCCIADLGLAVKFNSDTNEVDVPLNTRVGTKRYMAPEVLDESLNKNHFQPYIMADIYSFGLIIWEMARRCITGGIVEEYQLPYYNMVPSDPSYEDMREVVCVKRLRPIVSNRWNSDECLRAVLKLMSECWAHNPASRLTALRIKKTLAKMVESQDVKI

SMILES: N#Cc1cc(-c2ncnc(Nc3ccc(N4CCN(C5COC5)CC4)cc3)n2)ccc1OC1CCOCC1 [Compound 1, 5-(4-((4-(4-(oxetan-3-yl)piperazin-1-yl)phenyl)amino)-1,3,5-triazin-2-yl)-2-((tetrahydro-2H-pyran-4-yl)oxy)benzonitrile]
- inhibition (off-target kinases [1]; read-out: % Inhibition 1): 65%
- inhibition (off-target kinases [1]; read-out: % Inhibition 2): 50%
- inhibition (off-target kinases [1]; read-out: % Inhibition Avg): 58%
- inhibition (off-target kinases [2]; read-out: % Inhibition 1): 56%
- inhibition (off-target kinases [2]; read-out: % Inhibition 2): 51%
- inhibition (off-target kinases [2]; read-out: % Inhibition Avg): 54%
- inhibition (off-target kinases [3]; read-out: % Inhibition 1): 58%
- inhibition (off-target kinases [3]; read-out: % Inhibition 2): 60%
- inhibition (off-target kinases [3]; read-out: % Inhibition Avg): 59%
- inhibition (off-target kinases [4]; read-out: % Inhibition 1): 4%
- inhibition (off-target kinases [4]; read-out: % Inhibition 2): 1%
- inhibition (off-target kinases [4]; read-out: % Inhibition Avg): 3%
- inhibition (off-target kinases [5]; read-out: % Inhibition 1): 28%
- inhibition (off-target kinases [5]; read-out: % Inhibition 2): 27%
- inhibition (off-target kinases [5]; read-out: % Inhibition Avg): 27%
- inhibition (off-target kinases [6]; read-out: % Inhibition 1): 51%
- inhibition (off-target kinases [6]; read-out: % Inhibition 2): 51%
- inhibition (off-target kinases [6]; read-out: % Inhibition Avg): 51%
- inhibition (off-target kinases [7]; read-out: % Inhibition 1): 13%
- inhibition (off-target kinases [7]; read-out: % Inhibition 2): 10%
- inhibition (off-target kinases [7]; read-out: % Inhibition Avg): 12%
- % Inhibition 1 (off-target kinases [8]): −7%
- % Inhibition 2 (off-target kinases [8]): −16%
- % Inhibition Avg (off-target kinases [8]): −11%
- inhibition (off-target kinases [9]; read-out: % Inhibition 1): 17%
- inhibition (off-target kinases [9]; read-out: % Inhibition 2): 13%
- inhibition (off-target kinases [9]; read-out: % Inhibition Avg): 15%
- inhibition (off-target kinases [10]; read-out: % Inhibition 1): 11%
- inhibition (off-target kinases [10]; read-out: % Inhibition 2): 3%
- inhibition (off-target kinases [10]; read-out: % Inhibition Avg): 7%
